Measurements as given in ChEMBL document CHEMBL1201862, “PubChem BioAssay data set” (2004).
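96-well plates; 48 h exposure; 5 concentrations. Endpoints by linear interpolation between flanking doses. Not reached: highest tested concentration assigned. GI50: concentration for 50% inhibition of growth.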 Activity calls are given as the source filed them. Rule as the data show it: active = GI50 up to about 1.1 µM and inactive = higher.

How the values were obtained:
Test in all cases: NCI-60 cell line screen, 48 h
BT-549 = system: BT-549
OVCAR-8 = system: OVCAR-8
TK-10 = system: TK-10
A498 = system: A498
MDA-N = system: MDA-N
NCI-H522 = system: NCI-H522
SNB-19 = system: SNB-19
HCT-116 = system: HCT-116
HOP-62 = system: HOP-62
Hs-578T = system: Hs-578T
MDA-MB-435 = system: MDA-MB-435
SK-OV-3 = system: SK-OV-3
HT-29 = system: HT-29
SF-295 = system: SF-295
NCI-H226 = system: NCI-H226
SN12C = system: SN12C
OVCAR-5 = system: OVCAR-5
EKVX = system: EKVX
IGROV-1 = system: IGROV-1
UACC-257 = system: UACC-257
HOP-92 = system: HOP-92
HL-60 = system: HL-60
786-0 = system: 786-0
SW-620 = system: SW-620
NCI/ADR-RES = system: NCI/ADR-RES
SF-539 = system: SF-539
RXF 393 = system: RXF 393
HCC 2998 = system: HCC 2998
KM12 = system: KM12
MDA-MB-231 = system: MDA-MB-231
A549 = system: A549
OVCAR-3 = system: OVCAR-3
LOX IMVI = system: LOX IMVI
SK-MEL-5 = system: SK-MEL-5
SR = system: SR
MOLT-4 = system: MOLT-4
NCI-H23 = system: NCI-H23
T47D = system: T47D
K562 = system: K562
SF-268 = system: SF-268
OVCAR-4 = system: OVCAR-4
MCF7 = system: MCF7
PC-3 = system: PC-3
Malme-3M = system: Malme-3M
SNB-75 = system: SNB-75
CCRF-CEM = system: CCRF-CEM
ACHN = system: ACHN
NCI-H460 = system: NCI-H460
DU-145 = system: DU-145
SK-MEL-2 = system: SK-MEL-2
UO-31 = system: UO-31
U-251 = system: U-251
COLO 205 = system: COLO 205
HCT-15 = system: HCT-15
SK-MEL-28 = system: SK-MEL-28
M14 = system: M14
UACC-62 = system: UACC-62
CAKI-1 = system: CAKI-1
RPMI-8226 = system: RPMI-8226

Question: Which GI50 (BT-549) does the source give for `CCCCCCCC/C=C\CCCCCCC/C=C1/C[C@](/C=C/C(=O)OC)(CO)OC1=O` here?
Answer: 5.02 µM (inactive)

Question: What about the GI50 (OVCAR-8) of the same compound?
Answer: 6.65 µM (inactive)

Question: And the GI50 (TK-10)?
Answer: 2.68 µM (inactive)

Question: What about the GI50 (A498) of the same compound?
Answer: 8.67 µM (inactive)

Question: And the GI50 (MDA-N)?
Answer: 0.773 µM (active)

Question: What about the GI50 (NCI-H522) of the same compound?
Answer: 5.6 µM (inactive)

Question: And the GI50 (SNB-19)?
Answer: 7.16 µM (inactive)

Question: What about the GI50 (HCT-116) of the same compound?
Answer: 4.56 µM (inactive)

Question: And the GI50 (HOP-62)?
Answer: 3.44 µM (inactive)

Question: And the GI50 (Hs-578T)?
Answer: 0.923 µM (active)

Question: What about the GI50 (MDA-MB-435) of the same compound?
Answer: 0.904 µM (active)

Question: And the GI50 (SK-OV-3)?
Answer: 10.9 µM (inactive)

Question: And the GI50 (HT-29)?
Answer: 7.71 µM (inactive)

Question: What about the GI50 (SF-295) of the same compound?
Answer: 2.29 µM (inactive)

Question: What about the GI50 (NCI-H226) of the same compound?
Answer: 5.14 µM (inactive)

Question: What about the GI50 (SN12C) of the same compound?
Answer: 2.86 µM (inactive)

Question: And the GI50 (OVCAR-5)?
Answer: 7.46 µM (inactive)

Question: What about the GI50 (EKVX) of the same compound?
Answer: 9.73 µM (inactive)

Question: And the GI50 (IGROV-1)?
Answer: 11.5 µM (inactive)

Question: What about the GI50 (UACC-257) of the same compound?
Answer: 15.6 µM (inactive)

Question: What about the GI50 (HOP-92) of the same compound?
Answer: 2.4 µM (inactive)

Question: And the GI50 (HL-60)?
Answer: 1.63 µM (inactive)

Question: And the GI50 (786-0)?
Answer: 0.908 µM (active)

Question: What about the GI50 (SW-620) of the same compound?
Answer: 2.66 µM (inactive)

Question: And the GI50 (NCI/ADR-RES)?
Answer: 10.4 µM (inactive)

Question: What about the GI50 (SF-539) of the same compound?
Answer: 1.01 µM (active)

Question: And the GI50 (RXF 393)?
Answer: 14.2 µM (inactive)

Question: And the GI50 (HCC 2998)?
Answer: 4.18 µM (inactive)

Question: What about the GI50 (KM12) of the same compound?
Answer: 10.9 µM (inactive)

Question: And the GI50 (MDA-MB-231)?
Answer: 3.99 µM (inactive)

Question: And the GI50 (A549)?
Answer: 2.37 µM (inactive)

Question: What about the GI50 (OVCAR-3) of the same compound?
Answer: 11.6 µM (inactive)

Question: What about the GI50 (LOX IMVI) of the same compound?
Answer: 1.6 µM (inactive)

Question: And the GI50 (SK-MEL-5)?
Answer: 2.84 µM (inactive)

Question: And the GI50 (SR)?
Answer: 3.92 µM (inactive)

Question: And the GI50 (MOLT-4)?
Answer: 1.3 µM (inactive)

Question: And the GI50 (NCI-H23)?
Answer: 11.2 µM (inactive)

Question: What about the GI50 (T47D) of the same compound?
Answer: 7.38 µM (inactive)

Question: And the GI50 (K562)?
Answer: 0.561 µM (active)

Question: And the GI50 (SF-268)?
Answer: 6.9 µM (inactive)

Question: And the GI50 (OVCAR-4)?
Answer: 6.58 µM (inactive)

Question: What about the GI50 (MCF7) of the same compound?
Answer: 7.41 µM (inactive)

Question: What about the GI50 (PC-3) of the same compound?
Answer: 2.58 µM (inactive)

Question: And the GI50 (Malme-3M)?
Answer: 2.15 µM (inactive)

Question: What about the GI50 (SNB-75) of the same compound?
Answer: 7.66 µM (inactive)

Question: What about the GI50 (CCRF-CEM) of the same compound?
Answer: 1.01 µM (active)

Question: And the GI50 (ACHN)?
Answer: 3.11 µM (inactive)

Question: What about the GI50 (NCI-H460) of the same compound?
Answer: 2.15 µM (inactive)

Question: What about the GI50 (DU-145) of the same compound?
Answer: 9.06 µM (inactive)

Question: And the GI50 (SK-MEL-2)?
Answer: 13.5 µM (inactive)

Question: And the GI50 (UO-31)?
Answer: 1.77 µM (inactive)

Question: And the GI50 (U-251)?
Answer: 6.03 µM (inactive)

Question: What about the GI50 (COLO 205) of the same compound?
Answer: 1.57 µM (inactive)

Question: And the GI50 (HCT-15)?
Answer: 8.41 µM

Question: And the GI50 (SK-MEL-28)?
Answer: 2.77 µM (inactive)

Question: What about the GI50 (M14) of the same compound?
Answer: 2.05 µM (inactive)

Question: What about the GI50 (UACC-62) of the same compound?
Answer: 9.35 µM (inactive)

Question: What about the GI50 (CAKI-1) of the same compound?
Answer: 1.29 µM (inactive)

Question: For `O=C1C(Br)=C(Br)C(=O)c2c(O)ccc(O)c21`, which GI50 (BT-549) is on record?
Answer: 13.9 µM (inactive)

Question: What about the GI50 (OVCAR-8) of the same compound?
Answer: 8.83 µM (inactive)

Question: And the GI50 (TK-10)?
Answer: 2.27 µM (inactive)

Question: And the GI50 (A498)?
Answer: 21.7 µM (inactive)

Question: What about the GI50 (MDA-N) of the same compound?
Answer: 2.49 µM (inactive)

Question: And the GI50 (NCI-H522)?
Answer: 0.287 µM (active)

Question: What about the GI50 (RPMI-8226) of the same compound?
Answer: 0.721 µM (active)

Question: What about the GI50 (SNB-19) of the same compound?
Answer: 18.3 µM (inactive)

Question: And the GI50 (HCT-116)?
Answer: 3.56 µM (inactive)

Question: What about the GI50 (HOP-62) of the same compound?
Answer: 9.38 µM (inactive)

Question: And the GI50 (Hs-578T)?
Answer: 27.1 µM (inactive)

Question: What about the GI50 (MDA-MB-435) of the same compound?
Answer: 3.07 µM (inactive)

Question: What about the GI50 (SK-OV-3) of the same compound?
Answer: 20 µM (inactive)

Question: What about the GI50 (HT-29) of the same compound?
Answer: 3.15 µM (inactive)

Question: What about the GI50 (SF-295) of the same compound?
Answer: 17.8 µM (inactive)

Question: What about the GI50 (NCI-H226) of the same compound?
Answer: 28.4 µM (inactive)

Question: What about the GI50 (SN12C) of the same compound?
Answer: 7.66 µM (inactive)

Question: What about the GI50 (OVCAR-5) of the same compound?
Answer: 17 µM (inactive)

Question: And the GI50 (EKVX)?
Answer: 20.7 µM (inactive)

Question: What about the GI50 (IGROV-1) of the same compound?
Answer: 14.7 µM (inactive)

Question: And the GI50 (UACC-257)?
Answer: 5.43 µM (inactive)

Question: And the GI50 (HOP-92)?
Answer: 2.11 µM (inactive)

Question: And the GI50 (HL-60)?
Answer: 0.168 µM (active)

Question: What about the GI50 (786-0) of the same compound?
Answer: 1.56 µM (inactive)

Question: What about the GI50 (SW-620) of the same compound?
Answer: 1.33 µM (inactive)

Question: What about the GI50 (NCI/ADR-RES) of the same compound?
Answer: 12.2 µM (inactive)

Question: And the GI50 (SF-539)?
Answer: 15.9 µM (inactive)

Question: And the GI50 (RXF 393)?
Answer: 2.65 µM (inactive)

Question: What about the GI50 (HCC 2998) of the same compound?
Answer: 19.8 µM (inactive)

Question: What about the GI50 (KM12) of the same compound?
Answer: 11.4 µM (inactive)

Question: What about the GI50 (MDA-MB-231) of the same compound?
Answer: 2.64 µM (inactive)

Question: And the GI50 (A549)?
Answer: 19.3 µM (inactive)

Question: And the GI50 (OVCAR-3)?
Answer: 5.85 µM (inactive)

Question: What about the GI50 (SK-MEL-5) of the same compound?
Answer: 9.14 µM (inactive)

Question: What about the GI50 (SR) of the same compound?
Answer: 0.0352 µM (active)

Question: And the GI50 (MOLT-4)?
Answer: 0.0733 µM (active)

Question: What about the GI50 (NCI-H23) of the same compound?
Answer: 4.67 µM (inactive)

Question: What about the GI50 (T47D) of the same compound?
Answer: 2.19 µM (inactive)

Question: What about the GI50 (K562) of the same compound?
Answer: 0.596 µM (active)

Question: What about the GI50 (SF-268) of the same compound?
Answer: 16.9 µM (inactive)

Question: What about the GI50 (OVCAR-4) of the same compound?
Answer: 3.6 µM (inactive)

Question: What about the GI50 (MCF7) of the same compound?
Answer: 2.42 µM (inactive)

Question: And the GI50 (PC-3)?
Answer: 15.4 µM (inactive)

Question: What about the GI50 (Malme-3M) of the same compound?
Answer: 1.45 µM (inactive)

Question: What about the GI50 (SNB-75) of the same compound?
Answer: 18.8 µM (inactive)

Question: What about the GI50 (CCRF-CEM) of the same compound?
Answer: 0.189 µM (active)

Question: What about the GI50 (ACHN) of the same compound?
Answer: 2.48 µM (inactive)

Question: And the GI50 (NCI-H460)?
Answer: 16.3 µM (inactive)

Question: And the GI50 (DU-145)?
Answer: 12.1 µM (inactive)

Question: What about the GI50 (SK-MEL-2) of the same compound?
Answer: 26.2 µM (inactive)

Question: And the GI50 (UO-31)?
Answer: 2.79 µM (inactive)

Question: And the GI50 (U-251)?
Answer: 16.4 µM (inactive)

Question: And the GI50 (COLO 205)?
Answer: 1.09 µM (active)

Question: And the GI50 (HCT-15)?
Answer: 2.19 µM

Question: What about the GI50 (SK-MEL-28) of the same compound?
Answer: 2.06 µM (inactive)

Question: What about the GI50 (M14) of the same compound?
Answer: 1.85 µM (inactive)

Question: What about the GI50 (UACC-62) of the same compound?
Answer: 11.2 µM (inactive)
